Experimental findings from paper PMC12089509, “NorA Efflux Pump Inhibitors: Expanding SAR Knowledge of Pyrazolo[4,3‐c][1,2]benzothiazine 5,5‐Dioxide Derivatives” (Archiv Der Pharmazie, 2025) are described below.

SMILES strings stand for the structures. Read-outs that look alike come from different tables or passages of the source.

Assay [1] deals with T1, S. aureus NorA efflux pump (SA-1199B strain, overexpresses the norA gene) (Staphylococcus aureus, UniProt P0A0J7).
T1 construct: endogenous in cells; host or cells: S. aureus SA-1199B (overexpresses norA; isogenic parent SA-1199)
T1 sequence (P0A0J7 whole entry): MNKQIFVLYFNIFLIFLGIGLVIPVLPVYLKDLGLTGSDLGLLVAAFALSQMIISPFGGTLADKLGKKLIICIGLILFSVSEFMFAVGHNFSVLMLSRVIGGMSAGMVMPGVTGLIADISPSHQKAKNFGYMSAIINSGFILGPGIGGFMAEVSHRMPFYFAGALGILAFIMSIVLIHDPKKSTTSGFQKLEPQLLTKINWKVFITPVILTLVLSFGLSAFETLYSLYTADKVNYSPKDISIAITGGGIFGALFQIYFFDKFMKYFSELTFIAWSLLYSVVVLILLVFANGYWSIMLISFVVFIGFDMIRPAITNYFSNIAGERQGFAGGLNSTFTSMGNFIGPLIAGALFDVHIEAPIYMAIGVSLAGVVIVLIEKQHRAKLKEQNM
Description: EtBr efflux inhibition assay. The format is cell-based. The settings on record: for inhibition at 50 µM: read-out: EtBr efflux inhibition (%), compound at 50 µM, SA-1199B; for inhibition at 10 µM: read-out: EtBr efflux inhibition (%), compound at 10 µM, SA-1199B. The procedure: EtBr efflux inhibition assays were conducted using the S. aureus SA‐1199B strain, which overexpresses the norA gene and has an A116E GrlA substitution. Each compound was tested at 50 µM (see Figure 2). The starting hit compound 1 was used as the internal standard for comparison with the previously reported data.
The cells were grown overnight in cation‐supplemented Mueller–Hinton broth (CAMHB) without any additives at 35°C. The organisms were subsequently diluted into CAMHB to obtain an optical density at 600 nm (OD600) of 0.7–0.8. Subsequently, the cells were pelleted and resuspended at an OD600 of 0.8 in 0.5 mL aliquots of CAMHB containing EtBr and carbonyl cyanide m‐chlorophenylhydrazone (CCCP) to “load” the cells with EtBr (final concentrations of 25 μM for EtBr and 100 μM for CCCP). Following 20 min of incubation at room temperature, the cells were pelleted and resuspended in 1 mL of fresh CAMHB. Immediately thereafter, 200 μL aliquots were transferred into the wells of white 96‐well plates, which either lacked or contained 50 or 10 μM of each test compound. Fluorescence was monitored continuously using a microplate reader (Infinite M200 Pro, TECAN) at excitation and emission wavelengths of 485 and 645 nm, respectively, for a period of 5 min. The experiments were conducted in triplicate, with two technical replicates per biological replicate. The efflux activity of the SA‐1199B strain was expressed as a percentage of fluorescence decrease over a 5‐min time course. The inhibition of this efflux by the test compounds was determined using the following equation: ([efflux in the absence] ‐ [efflux in the presence of test [compound])/[efflux in the absence of test compound] × 100, which yielded the percent efflux inhibition observed.
^a Experiments were performed in triplicate with two technical replicates per biological replicate. Efflux activity of SA-1199B was expressed as percent fluorescence decrease over a 5 min time course. Inhibition of this efflux by test compounds was determined using the equation [efflux in the absence] − [efflux in the presence of test [compound]/[efflux in the absence of test compound] × 100, giving the percent efflux inhibition observed.

Assay [2] concerns Staphylococcus aureus SA-1199B. Description: MIC determination (broth microdilution) against SA-1199B. The format is cell-based. The following applies: SA1199B. The text has this: In this study, the S. aureus strains SA‐1199B (overexpressing norA) and its isogenic parent SA‐1199 (wild type), the pair SA‐K1902 (norA‐depleted) and SA‐K2378 (complemented with a pCU1 plasmid harboring the norA promoting and coding region from SA‐1199B), were used to test EPI activity as described in a previous study. Furthermore, the S. aureus ATCC 29213 was used as the reference strain in MIC determination experiments.

For assay [3], the system named is Staphylococcus aureus SA-1199B. It counts as cell-based. From the text: For purposes of comparison, compound 1 was included as a reference.
Assay [4] relates to S. aureus SA-1199 (wild type). As to the kind of experiment: MIC determination against wild-type SA-1199. The format is cell-based. The settings on record: Staphylococcus aureus, compound alone. From the text: (§1) This finding aligns with their mechanism of action, which involves the inhibition of NorA, which is only basally expressed in the wild‐type SA‐1199 strain.
Assay [5] concerns S. aureus SA-1199 (wild type). Description: Synergistic assay with CPX against wild-type SA-1199. The settings on record: EPI at 3.13 µg/mL with CPX. It counts as cell-based, Staphylococcus aureus.
Excerpt: as §1

In the case of `CN1c2c(-c3ccc(Cl)cc3)nn(-c3ccc([N+](=O)[O-])cc3)c2-c2ccccc2S1(=O)=O` [Compound 2], the inhibition at 50 µM in assay [1] was 0%. Moreover, the MIC in assay [2] is over 50 µg/mL.
On to `Cc1nn(-c2ccc([N+](=O)[O-])cc2)c2c1NS(=O)(=O)c1ccccc1-2` [Compound 4], for which, in assay [1], the inhibition at 50 µM came to 0%. In addition, in assay [2], the MIC is over 50 µg/mL.
As for `Cc1nn(-c2ccc([N+](=O)[O-])cc2)c2c1S(=O)(=O)Nc1ccccc1-2` [Compound 5, 3‐Methyl‐1‐(4‐nitrophenyl)‐1,5‐dihydropyrazolo[4,3‐c][2,1]benzothiazine 4,4‐dioxide], in assay [1], the inhibition at 50 µM amounted to 0%. Also, the MIC in assay [2] was over 50 µg/mL.
Consider `Cc1nn(-c2ccc([N+](=O)[O-])cc2)c2c1N(C)S(=O)(=O)c1ccccc1-2` [Compound 6], for which the inhibition at 50 µM in assay [1] was 22%. Besides, the MIC in assay [2] was over 50 µg/mL.
With `Cc1nn(-c2ccc([N+](=O)[O-])cc2)c2c1S(=O)(=O)N(C)c1ccccc1-2` [Compound 7, 3,5‐Dimethyl‐1‐(4‐nitrophenyl)‐1,5‐dihydropyrazolo[4,3‐c][2,1]benzothiazine 4,4‐dioxide], the inhibition at 50 µM in assay [1] was 3%. The compound further registered an MIC in assay [2] of over 50 µg/mL.
Take `Cc1cc(-c2ccccc2NS(C)(=O)=O)n(-c2ccccc2)n1` [Compound 8, N‐[2‐(3‐Methyl‐1‐phenyl‐1H‐pyrazol‐5‐yl)phenyl]methanesulfonamide]: in assay [3] (EPI at 12.5 µg/mL), the “N° fold CPX MIC reduction” value is 2 fold. Further, the inhibition at 50 µM in assay [1] came to 0%. Moreover, the minimal inhibitory concentration (MIC) in assay [2] was over 50 µg/mL.
Take `O=S1(=O)Nc2c(-c3ccc(Cl)cc3)n[nH]c2-c2ccccc21` [Compound 9, 3‐(4‐Chlorophenyl)‐1,4‐dihydropyrazolo[4,3‐c][1,2]benzothiazine 5,5‐dioxide]: the “N° fold CPX MIC reduction” value in assay [3] (EPI at 12.5 µg/mL) stood at 2 fold. In addition, in assay [1], the inhibition at 50 µM was found to be 12%. The MIC in assay [2] was over 50 µg/mL.
On to `CN1c2c(-c3ccccc3)n[nH]c2-c2ccccc2S1(=O)=O` [Compound 11, 4‐Methyl‐3‐phenyl‐1,4‐dihydropyrazolo[4,3‐c][1,2]benzothiazine 5,5‐dioxide], for which the inhibition at 50 µM in assay [1] was under 70%. In assay [2], this compound came in with a minimal inhibitory concentration (MIC) of over 50 µg/mL.
Take `CN1c2c(-c3ccc(F)cc3)n[nH]c2-c2ccccc2S1(=O)=O` [Compound 12, 3‐(4‐Fluorophenyl)‐4‐methyl‐1,4‐dihydropyrazolo[4,3‐c][1,2]benzothiazine 5,5‐dioxide]: in assay [1], the inhibition at 10 µM turned out to be 22% and the inhibition at 50 µM was 87%. In assay [4], this compound gave an MIC of over 50 µg/mL. Also, the “synergistic effect with CPX” value in assay [5] is “did not show any synergistic effect”. The compound further came in with an MIC in assay [2] of over 50 µg/mL.
`CN1c2c(-c3ccc(F)c(Cl)c3)n[nH]c2-c2ccccc2S1(=O)=O` [Compound 13, 3‐(3‐Chloro‐4‐fluorophenyl)‐4‐methyl‐1,4‐dihydropyrazolo[4,3‐c][1,2]benzothiazine 5,5‐dioxide]: the “N° fold CPX MIC reduction” value in assay [3] (EPI at 3.12 µg/mL) is 2 fold; in assay [3] (EPI at 12.5 µg/mL), 4 fold. Besides, the inhibition at 10 µM in assay [1] is 0%. Besides, the inhibition at 50 µM in assay [1] was 100%. The minimal inhibitory concentration (MIC) in assay [4] and in assay [2] was over 50 µg/mL throughout. Also, the “synergistic effect with CPX” value in assay [5] is on record as “did not show any synergistic effect”.
On to `CCN1c2c(-c3ccc(F)cc3)n[nH]c2-c2ccccc2S1(=O)=O` [Compound 14, 4‐Ethyl‐3‐(4‐fluorophenyl)‐1,4‐dihydropyrazolo[4,3‐c][1,2]benzothiazine 5,5‐dioxide], for which, in assay [3] (EPI at 12.5 µg/mL), the “N° fold CPX MIC reduction” value came out at 2 fold. For the same compound, the inhibition at 50 µM in assay [1] was found to be 57%. Besides, the MIC in assay [2] was over 50 µg/mL.
`O=S1(=O)c2ccccc2-c2[nH]nc(-c3ccc(F)cc3)c2N1CCCO` [Compound 15, 3‐[3‐(4‐Fluorophenyl)‐5,5‐dioxidopyrazolo[4,3‐c][1,2]benzothiazin‐4(1H)‐yl]propan‐1‐ol]: the “N° fold CPX MIC reduction” value in assay [3] (EPI at 12.5 µg/mL) came out at 2 fold. Also, in assay [1], the inhibition at 50 µM was found to be 17%. In assay [2], the MIC is over 50 µg/mL.
For `CNC(=O)CN1c2c(-c3ccc(F)cc3)n[nH]c2-c2ccccc2S1(=O)=O` [Compound 16, 2‐[3‐(4‐Fluorophenyl)‐5,5‐dioxidopyrazolo[4,3‐c][1,2]benzothiazin‐4(1H)‐yl]‐N‐methylacetamide], the “N° fold CPX MIC reduction” value in assay [3] (EPI at 12.5 µg/mL) stood at 2 fold. Further, the inhibition at 50 µM in assay [1] came out at 22%. This compound displayed an MIC in assay [2] of over 50 µg/mL.
For `CNCCN1c2c(-c3ccc(F)cc3)n[nH]c2-c2ccccc2S1(=O)=O` [Compound 17, 2‐[3‐(4‐Fluorophenyl)‐5,5‐dioxidopyrazolo[4,3‐c][1,2]benzothiazin‐4(1H)‐yl]‐N‐methylethanamine], in assay [1], the inhibition at 50 µM was determined as 57%. This compound had an MIC in assay [2] of over 50 µg/mL.
As for `CN1c2c(-c3ccc(Cl)cc3)nn(CCN3CCCCC3)c2-c2ccccc2S1(=O)=O` [Compound 18, 3‐(4‐Chlorophenyl)‐4‐methyl‐1‐(2‐piperidin‐1‐ylethyl)‐1,4‐dihydropyrazolo[4,3‐c][1,2]benzothiazine 5,5‐dioxide], the “N° fold CPX MIC reduction” value in assay [3] (EPI at 6.25 µg/mL) was 2 fold; in assay [3] (EPI at 12.5 µg/mL), 4 fold. Also, the inhibition at 10 µM in assay [1] is 37%. For the same compound, the inhibition at 50 µM in assay [1] was over 70%. Besides, the MIC in assay [4] and in assay [2] was over 50 µg/mL in each case. The “synergistic effect with CPX” value in assay [5] is reported as “did not show any synergistic effect”.
In the case of `CN1c2c(-c3ccc(F)cc3)nn(C)c2-c2ccc(OCCN3CCCCC3)cc2S1(=O)=O` [Compound 20, 3‐(4‐Fluorophenyl)‐1,4‐dimethyl‐7‐(2‐piperidin‐1‐ylethoxy)‐1,4‐dihydropyrazolo[4,3‐c][1,2]benzothiazine 5,5‐dioxide], the results for the “N° fold CPX MIC reduction” value in assay [3] (EPI at 6.25 µg/mL) and in assay [3] (EPI at 12.5 µg/mL) were 2 fold and 8 fold, respectively. In addition, the inhibition at 10 µM in assay [1] was determined as 33%. Besides, the inhibition at 50 µM in assay [1] was over 70%. Moreover, the minimum inhibitory concentration (MIC) in assay [4] and in assay [2] was over 50 µg/mL each time. Moreover, in assay [5], the “synergistic effect with CPX” value is reported as “did not show any synergistic effect”.
On to `CN1c2c(-c3ccc(F)cc3)nn(C)c2-c2ccc(OCC(O)CO)cc2S1(=O)=O` (stereo not drawn) [Compound 21, 3‐{[3‐(4‐Fluorophenyl)‐1,4‐dimethyl‐5,5‐dioxido‐1,4‐dihydropyrazolo[4,3‐c][1,2]benzothiazin‐7‐yl]oxy}propane‐1,2‐diol], for which the inhibition at 50 µM in assay [1] is 0%. In assay [2], this compound had an MIC of over 50 µg/mL.
Consider `COc1ccc2c(c1)S(=O)(=O)N(C)c1c(-c3ccc(F)cc3)nn(C)c1-2` [Compound 22, 3‐(4‐Fluorophenyl)‐7‐methoxy‐1,4‐dimethyl‐1,4‐dihydropyrazolo[4,3‐c][1,2]benzothiazine 5,5‐dioxide], for which the “N° fold CPX MIC reduction” value in assay [3] (EPI at 12.5 µg/mL) was 2 fold. For the same compound, the inhibition at 50 µM in assay [1] is 22%. This compound yielded an MIC in assay [2] of over 50 µg/mL.
Regarding `CCN(CC)CCOC1=C(C(=O)c2ccc(F)cc2)N(C)S(=O)(=O)c2ccccc21` [Compound 23, {4‐[2‐(Diethylamino)ethoxy]‐2‐methyl‐1,1‐dioxido‐2H‐1,2‐benzothiazin‐3‐yl}(4‐fluorophenyl)methanone], in assay [3] (EPI at 12.5 µg/mL), the “N° fold CPX MIC reduction” value is recorded as 2 fold. Also, in assay [1], the inhibition at 50 µM was 36%. In assay [2], this compound came in with a minimum inhibitory concentration (MIC) of over 50 µg/mL.
Consider `CN1C(C(=O)c2ccc(F)cc2)=C(OCCN2CCCCC2)c2ccccc2S1(=O)=O` [Compound 24, (4‐Fluorophenyl)[2‐methyl‐1,1‐dioxido‐4‐(2‐piperidin‐1‐ylethoxy)‐2H‐1,2‐benzothiazin‐3‐yl]methanone], for which, in assay [3] (EPI at 12.5 µg/mL), the “N° fold CPX MIC reduction” value is given as 2 fold. Moreover, in assay [1], the inhibition at 50 µM is 38%. The same compound had an MIC in assay [2] of over 50 µg/mL.

The term inhibition denotes the relative decrease from the control value, in per cent. The MIC is the least concentration at which growth counts as inhibited.
